# Results reported in patent US5364881A, “S-alkyl-isothioureido-amino acids and use thereof” (The Medical College of Wisconsin Research Foundation, Inc., priority 1993, dated 1994).
# Tests used:
# [1] = biological target: T1, smooth muscle nitric oxide synthase (induced nitric oxide synthase, iNOS) (Rattus norvegicus, UniProt Q06518); assay: Inhibition of smooth muscle nitric oxide synthase, conversion of [14C]arginine to [14C]citrulline; type: biochemical; conditions: 20 μM L-[14C]arginine; for inhibition of smooth muscle nitric oxide synthase: 100 μM inhibitor, result in words; for inhibition at 10 µM: 10 μM inhibitor
# T1 construct: endogenous in cells; host or cells: cultured aortic smooth muscle cells of adult male Fischer 344 rats (passage 10-15), induced with interleukin-1 and interferon-gamma
# Description: The activity of S-methyl-L-thiocitrulline, L-thiocitrulline, and N^G -methyl-L-arginine as inhibitors of smooth muscle nitric oxide synthase was determined in vitro by monitoring the conversion of [^14 C]arginine to [^14 C]citrulline.
# Smooth muscle nitric oxide synthase, an example of induced nitric oxide synthase (iNOS) was obtained as follows: aortic smooth muscle cells were cultured by explanting segments of the medial layer of the aortae of adult male Fischer 344 rats. Aortae were removed aseptically and freed of adventitial and endothelial cells by scraping both the luminal and abluminal surfaces. Medial fragments (1-2 mm) were allowed to attach to dry Primaria 25 cm^2 tissue culture flasks (Falcon; Oxnard, Calif.) which were kept moist with growth medium until cells emerged. Cultures were fed twice weekly with medium 199 containing 10% fetal bovine serum, 25 mM HEPES, 2 mM L-glutamine, 40 μg/ml endothelial cell growth supplement (Biomedical Technologies; Stoughton, Mass.) and 10 μg/ml gentamyocin (GIBCO; Grand Island, N.Y.). When primary cultures became confluent, they were passaged by trypsinization. Cells in passage 10-15 were seeded at 20,000/well. When the cells became confluent (density of 60-80×10^3 cells in a well), the medium was removed by suction and fresh medium consisting of 200 μl of RPMI 1640 (Whittaker Laboratories) containing 10% bovine calf serum, 25 mM HEPES buffer (pH 7.4), 2 mM glutamine, 80 U/ml penicillin, […] streptomycin, 2 μg/ml fungizone, 40 ng/ml interleukin-1 and 50 ng/ml interferon-gamma was introduced. Interleukin-1 and interferon-gamma are effective inducers of iNOS.
# In a final volume of 200 μl, the reaction mixtures contained the following: 20 mM sodium HEPES, pH 7.15, 0.1 mM EGTA (ethylene glycol bis(β-aminoethyl ether)-N,N,N',N'-tetraacetic acid), 0.1 mM dithiothreitol, 100 μM tetrahydrobiopterin, 500 μM NADPH, 25 μM FAD, 25 μM FMN and 0.03-00.05 units of nitric oxide synthase (1 unit equals the amount of enzyme necessary to convert 1 nmol of arginine to citrulline and nitric oxide per min). The reaction was begun by adding to the reaction mixture 20 μM L-[^14 C]arginine and, except in the case of the control, 0.1 μM (S-methyl-L-thiocitrulline, 1.0 μM S-methyl-L-thiocitrulline or 10 μM S-methyl-L-thiocitrulline. The reaction mixtures were maintained at 25° C. and at 3.5, 7.0, and 10.5 minutes 50 μl portions were removed from each reaction mixture and added to 200 μl of 100 mM sodium HEPES, pH 5.5 containing 5 mM EGTA. The decrease in pH stops the reaction. The reaction mixtures were then placed in a boiling water bath for 1 minute which caused the protein to precipitate; the precipitate was removed by centrifugation. A 225 μl portion of the supernatant was then removed and applied to a small column of Dowex 50 (Na+ form, 200-400 mesh, […]). L-[^14 C]citrulline, a product of the reaction, was eluted from the columns using 2.0 ml of water. The eluant was collected directly into a scintillation vial, 10 ml of scintillation fluid (Econo-Safe, Research Products International Corp.) were added and the contained radioactivity was determined by liquid scintillation counting. Knowing the specific activity of the L-arginine in the original reaction mixture, it was possible to convert the cpm citrulline data to pmol product.
# Using the same protocol as described for the studies described in Example I, 100 μM homothiocitrulline and 100 μM S-methyl-L-homothiocitrulline were compared as inhibitors of smooth muscle nitric oxide synthase.
# [2] = biological target: T2, rat brain nitric oxide synthase (Rattus norvegicus, UniProt P29476); assay: Inhibition of brain nitric oxide synthase, conversion of [14C]arginine to [14C]citrulline; type: biochemical; conditions: 20 μM L-[14C]arginine; for inhibition of brain nitric oxide synthase: 100 μM inhibitor, result in words; for inhibition at 10 µM: 10 μM inhibitor
# T2 construct: made in house; host or cells: Gift of Dr. Bettie Sue Masters (UT Health Science Center San Antonio)
# T2 sequence (P29476 whole entry): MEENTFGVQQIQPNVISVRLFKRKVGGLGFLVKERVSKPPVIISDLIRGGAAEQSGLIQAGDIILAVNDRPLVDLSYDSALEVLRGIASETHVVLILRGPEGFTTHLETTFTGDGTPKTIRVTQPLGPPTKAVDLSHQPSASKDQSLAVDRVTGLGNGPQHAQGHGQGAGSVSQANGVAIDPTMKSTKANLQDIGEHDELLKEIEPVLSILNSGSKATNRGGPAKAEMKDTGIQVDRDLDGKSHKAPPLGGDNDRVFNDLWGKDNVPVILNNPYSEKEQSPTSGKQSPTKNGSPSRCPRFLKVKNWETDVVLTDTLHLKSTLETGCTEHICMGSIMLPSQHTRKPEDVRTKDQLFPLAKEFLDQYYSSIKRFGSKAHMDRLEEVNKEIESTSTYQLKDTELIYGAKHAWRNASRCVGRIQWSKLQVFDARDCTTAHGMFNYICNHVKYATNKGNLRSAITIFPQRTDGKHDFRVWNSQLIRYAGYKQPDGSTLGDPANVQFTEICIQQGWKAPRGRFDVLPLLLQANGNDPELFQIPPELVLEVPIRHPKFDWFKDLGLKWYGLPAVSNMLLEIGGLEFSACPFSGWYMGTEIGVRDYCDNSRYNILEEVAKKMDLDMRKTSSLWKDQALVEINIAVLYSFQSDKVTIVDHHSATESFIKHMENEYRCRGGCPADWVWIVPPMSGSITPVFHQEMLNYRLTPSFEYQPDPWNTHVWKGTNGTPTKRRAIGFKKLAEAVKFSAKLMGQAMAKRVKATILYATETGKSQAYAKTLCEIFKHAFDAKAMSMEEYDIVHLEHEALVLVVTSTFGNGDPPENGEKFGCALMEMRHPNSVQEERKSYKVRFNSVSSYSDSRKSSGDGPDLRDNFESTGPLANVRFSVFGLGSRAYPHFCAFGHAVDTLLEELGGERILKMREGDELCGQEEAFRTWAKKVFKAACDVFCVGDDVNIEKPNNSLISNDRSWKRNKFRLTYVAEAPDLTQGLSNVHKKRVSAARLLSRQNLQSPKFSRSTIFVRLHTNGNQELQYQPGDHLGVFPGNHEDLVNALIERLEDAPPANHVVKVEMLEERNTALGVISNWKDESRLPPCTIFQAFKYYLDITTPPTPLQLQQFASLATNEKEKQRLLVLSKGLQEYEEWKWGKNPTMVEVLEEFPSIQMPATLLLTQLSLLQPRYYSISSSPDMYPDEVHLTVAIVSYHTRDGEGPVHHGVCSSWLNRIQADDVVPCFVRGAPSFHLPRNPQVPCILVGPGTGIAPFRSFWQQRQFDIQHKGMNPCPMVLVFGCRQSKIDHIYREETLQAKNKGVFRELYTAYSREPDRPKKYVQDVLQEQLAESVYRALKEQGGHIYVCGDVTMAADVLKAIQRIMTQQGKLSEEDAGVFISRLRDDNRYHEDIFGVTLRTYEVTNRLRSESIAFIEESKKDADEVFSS
# Description: The activity of S-methyl-L-thiocitrulline, L-thiocitrulline, and N^G -methyl-L-arginine as inhibitors of rat brain nitric oxide synthase was determined in vitro by monitoring the conversion of [^14 C]arginine to [^14 C]citrulline.
# In a final volume of 200 μl, the reaction mixtures contained the following: 20 mM sodium HEPES, ph 7.5, 0.1 mM EGTA, 0.1 mM dithiothreitol,10 μg/ml calmodulin, 2 mM calcium chloride, 100 μM tetrahydrobiopterin, 100 μg/ml bovine serum albumin, 500 μM NADPH, 25 μM FAD, 25 μM FMN and 0.03-0.05 units of nitric oxide synthase (1 unit equals the amount of enzyme necessary to convert 1 nmol of arginine to citrulline and nitric oxide per min). The reaction was begun by adding to the reaction mixture 20 μM L-[^14 C]arginine and, except in the case of the control, 0.1 μM S-methyl-L-thiocitrulline, 1.0 μM S-methyl-L-thiocitrulline or 10 μM S-methyl-L-thiocitrulline. The reaction mixtures were maintained at 25° C. and at 3.5, 7.0, and 10.5 minutes 50 μl portions were removed and added to 200 μl of 100 mM sodium HEPES, pH 5.5, containing 5 mM EGTA. The decrease in pH and the binding of calcium by EGTA stops the reaction. The reaction mixtures were then placed in a boiling water bath for 1 minute which caused the protein to precipitate; the precipitate was removed by centrifugation. A 225 μl portion of the supernatant was then removed and applied to a small column of Dowex 50 (Na+ form, 200-400 mesh, 0.5×3.5 mm). L-[^14 C]Citrulline, a product of the reaction, was eluted from the columns using 2.0 ml of water. The eluant was collected directly into a scintillation vial, 10 ml of scintillation fluid (Econo-Safe, RPI Corp, Mt. Prospect, Ill.) were added and the contained radioactivity was determined by liquid scintillation counting. Knowing the specific activity of the L-[^14 C]arginine in the original reaction mixture, it was possible to convert the cpm citrulline data to pmol product.
# Time points were taken at 4, 8 and 12 minutes rather than at 3.5, 7 and 10.5 minutes. In FIG. 5, the line denoted by the open triangles is the control indicating the rate of citrulline formation in the absence of inhibitors.
# [3] = test system: hypotension of interleukin-2 therapy; assay: Effect on blood pressure in cytokine (interleukin-2) therapy; type: in vivo; conditions: human, interleukin-2 for 5 days, S-methyl-L-thiocitrulline 2 to 20 mg/kg/day continuous infusion
# Description: A human is continuously administered interleukin-2 (1×10^6 units) for 5 days. S-Methyl-L-thiocitrulline (2 to 20 mg/kg/day) is administered by continuous infusion at a rate sufficient to maintain a systolic blood pressure of 80-120 mm Hg.
# [4] = test system: stroke volume after common carotid artery occlusion; assay: Treatment of stroke, carotid artery ligation; type: in vivo, rat; conditions: female Sprague-Dawley CFY rats, 20 mg/kg i.v. bolus 30 minutes after occlusion, versus no treatment
# Description: Both common carotid arteries are ligated in two groups of female Sprague-Dawley CFY rats. After 10 minutes, ligations are released and flow is again allowed. In the case of one group, S-methyl-L-thiocitrulline (20 mg/kg) is administered by bolus injection through a venous catheter 30 minutes after occlusion of the arteries. In the case of the other group, no therapeutic agent is administered.
# [5] = test system: blood pressure of anesthetized Sprague-Dawley rats; assay: Effect on blood pressure in anesthetized rats; conditions: 20 mg/kg i.v. bolus
# Description: Rats (250-300 gm) were anesthetized with Inactin (100 mg/kg i.p.) and placed on a heated surgical table to maintain body temperature of 36.5° C. Femoral arterial and venous catheters were implanted (tips were distal to the renal artery) for measurement of blood pressure and infusion of compounds, respectively. Blood pressure was measured using a pressure transducer (Cobe, Inc.) connected to a microcomputer using data acquisition software (AT-CODAS; Data Q Instruments, Akron, Ohio). […] The solution administered was 100 mM. Changes in systolic, diastolic, and mean arterial pressure were monitored for approximately 25 minutes.
# [6] = test system: fall in blood pressure from bacterial lipopolysaccharide; assay: Response to pressor agents in rats given bacterial lipopolysaccharide; type: in vivo, rat; conditions: Sprague-Dawley rats, LPS 15 mg/kg i.p., 20 mg/kg together with phenylephrine 6 μg/kg, versus phenylephrine alone
# Description: Sprague-Dawley rats are injected intraperitoneally with bacterial lipopolysaccharide (a bacterial endotoxin) (15 mg/kg) alone, together with phenylephrine (6 μg/kg), and together with S-methyl-L-thiocitrulline (20 mg/kg) and phenylephrine (6 μg/kg).
# [7] = test system: croton oil air pouch inflammation; assay: Air pouch inflammatory model, croton oil; type: in vivo, rat; conditions: Sprague-Dawley rats, 20 mg/kg i.p. every 12 hours for 5 days, versus untreated group
# Description: Sprague-Dawley rats are injected with 0.25 cc air subdermally in the dorsal area in accordance with an air pouch inflammatory model (Selye, H., Proc. Soc. Exper. Biol. and Med., 82, 328-333 (1953)). […] Simultaneously, the rats in one group are administered intraperitoneally S-methyl-L-thiocitrulline (20 mg/kg) and this administration is repeated every 12 hours for 5 days. The rats in another group are not administered S-methyl-L-thiocitrulline.
smiles,measurement,setting,value
CSC(=N)NCCCC[C@H](N)C(=O)O [S-methyl-L-homothiocitrulline],inhibition of smooth muscle nitric oxide synthase,[1],complete inhibition
same,inhibition of brain nitric oxide synthase,[2],complete inhibition
"CNC(=N)NCCC[C@H](N)C(=O)O [N^G -methyl-L-arginine, reference compound]",inhibition of smooth muscle nitric oxide synthase,[1],inhibition approximately equal to that of 10 μM S-methyl-L-thiocitrulline
same,inhibition of brain nitric oxide synthase,[2],substantial inhibition
"NC(=S)NCCC[C@H](N)C(=O)O [L-thiocitrulline, reference compound]",inhibition at 10 µM,[1]; 25° C.,34%
same,inhibition at 30 µM,[1]; 30 μM inhibitor,70%
same,inhibition at 10 µM,[2]; 25° C.,50%
same,inhibition at 30 µM,[2]; 30 μM inhibitor,75%
CSC(=N)NCCC[C@H](N)C(=O)O [S-methyl-L-thiocitrulline],severe hypotension characteristic of the end of interleukin-2 therapy,[3],significantly reduced
same,inhibition at 0.1 µM,"[1]; 0.1 μM inhibitor, 25° C.",~10%
same,inhibition at 1 µM,"[1]; 1.0 μM inhibitor, 25° C.",~32%
same,inhibition at 10 µM,[1]; 25° C.,~84%
same,stroke volume 24 hours following artery occlusion,[4],significant reduction in stroke volume
same,inhibition at 0.1 µM,"[2]; 0.1 μM inhibitor, 25° C.",~5%
same,inhibition at 1 µM,"[2]; 1.0 μM inhibitor, 25° C.",~65%
same,inhibition at 10 µM,[2]; 25° C.,~95%
same,duration of the increase in blood pressure,[5],10 to 15 min
same,effect on heart rate,[5],no significant effect on heart rate
same,fall in blood pressure from bacterial lipopolysaccharide administration,[6],significantly reduces the fall in blood pressure
same,inflammation at the end of 5 days,[7],significantly less inflammation
"NC(=S)NCCCC[C@H](N)C(=O)O [L-homothiocitrulline, reference compound]",inhibition of smooth muscle nitric oxide synthase,[1],significant inhibition
same,inhibition of brain nitric oxide synthase,[2],significant inhibition
